In PubChem BioAssay (NCI):
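Protocol summary: plate cells (96-well), add compound at 5 concentrations, incubate 48 h, interpolate endpoints linearly. Definition used: TGI = concentration required for complete inhibition of growth.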

Key:
Test in all cases: inhibition of tumour cell growth, NCI panel, 48 h
[1] = system: CCRF-CEM leukemia
[2] = system: HL-60(TB) leukemia
[3] = system: SNB-75 CNS
[4] = system: DLD-1 colon
[5] = system: DMS 114 small cell lung
[6] = system: DMS 273 small cell lung
[7] = system: HOP-18 NSCLC
[8] = system: KM20L2 colon
[9] = system: LXFL 529 NSCLC
[10] = system: M19-MEL melanoma
[11] = system: SNB-78 CNS
[12] = system: XF 498 CNS

Compound | TGI [1] | TGI [2] | TGI [3] | further results
CC1=C(C(=O)NCCc2ccccc2)CC(C(=O)NCCc2ccccc2)=C(C)N1 | 76.5 µM | > 100 µM | 69.2 µM | 
COC(=O)C(=O)C(C(=O)C(=O)Nc1ccccc1C(C)=O)c1nc2ccc(C(=O)c3ccccc3)cc2[nH]c1=O (stereo unspecified) |  | > 100 µM | > 100 µM | 
CC(=O)N(CCc1ccccc1)C(C#N)c1ccc(OCCCCCCCCCCOc2ccc(C(C#N)N(CCc3ccccc3)C(C)=O)cc2)cc1 (stereo unspecified) | > 100 µM | > 100 µM | 38.3 µM | 
COc1cc(C2C3=C(COC3=O)Oc3cc4c(cc32)OCO4)ccc1OC(C)=O (stereo unspecified) | > 49.6 µM | 0.907 µM | 0.585 µM | 
Cc1ccc(SCC(CF)OCn2cc(F)c(=O)[nH]c2=O)cc1 (stereo unspecified) | > 100 µM | > 100 µM |  | 
NC1=NN(c2ccccc2)C2(O)c3ccncc3C3=NN(c4ccccc4)C(=O)C132 (stereo unspecified) |  | > 100 µM | > 100 µM | 
Cc1cccc(C)c1NC(=S)NC=C(C(N)=O)C(N)=O | > 100 µM |  | > 100 µM | 
O=C1c2c(ccc3c2CCC3)CC12Cc1cc3c(cc1C2)CCC3 | > 100 µM | > 100 µM | > 100 µM | 
CCOC(=O)C1C(c2ccc(OC)cc2)c2c([nH][nH]c2=O)CC1(O)OCC (stereo unspecified) | > 100 µM | > 100 µM | > 100 µM | 
COc1cc(C=Nc2ccc(C(C)C)cc2)cc(OC)c1OC | > 100 µM | > 82.3 µM | > 100 µM | TGI [4]: > 100 µM; TGI [5]: > 100 µM; TGI [6]: > 100 µM; TGI [7]: > 100 µM; TGI [8]: > 100 µM; TGI [9]: > 100 µM; TGI [10]: > 100 µM; TGI [11]: > 100 µM; TGI [12]: > 100 µM
N#CC(Nc1ccccc1)c1ccc(C(C#N)Nc2ccccc2)cc1 (stereo unspecified) | 48 µM | 34.3 µM |  | 
COc1ccc(C2=C(N)c3c(OC)cccc3C2=O)cc1 | > 100 µM | > 100 µM | > 100 µM | 
COc1ccc2cc(/C=N\NC(=O)Nc3cccc4ccccc34)ccc2c1 | 41.8 µM |  | 47.2 µM | 
C=C(Br)CN(C(C)=O)C1CCCCC1 | > 100 µM | > 100 µM | > 100 µM | 
CCCCCCCCC/C=C1\CC(CO)(COC(=O)C2CCCCC2)OC1=O (stereo unspecified) | 63.2 µM |  | 32.9 µM | 
Cc1occc1C(=S)Nc1ccc(Cl)c(/C=N/OC(C)C)c1 | 44.4 µM | 69.8 µM | 72.7 µM | 
COC(=O)c1ccccc1/C=C1\Cc2cc(C)cc(C)c2C1=O | > 100 µM | > 100 µM | > 100 µM | 
COc1cc(Nc2cnc3cc(F)c(F)cc3n2)cc(OC)c1 | > 100 µM | > 100 µM | 53.4 µM | 
COc1cc(NCc2ccc3nc(OC)c(OC)nc3c2)cc(OC)c1OC | > 100 µM | > 100 µM | > 100 µM | 
CC(C)C1CCC/C=C/C=C/C=C/C=C/C(OC2OC(C)C(O)C(N)C2O)CC2OC(O)(CC(O)CC(O)C(O)CCC(=O)O1)CC(O)C2C(=O)O (stereo unspecified) | > 52.5 µM | > 52.5 µM | > 52.5 µM | TGI [5]: > 52.5 µM; TGI [7]: > 52.5 µM; TGI [8]: > 52.5 µM; TGI [9]: > 52.5 µM; TGI [10]: > 52.5 µM; TGI [11]: > 52.5 µM
CC(=O)OCC1OC(N2C(C)=C(C(C)=O)C(c3ccco3)C(C#N)=C2S)C(OC(C)=O)C(OC(C)=O)C1OC(C)=O (stereo unspecified) | > 100 µM | > 100 µM | > 100 µM | 

Compound | TGI [1] | TGI [2] | TGI [3] | further results
CN(C)C(=O)Nc1cc2c3c(c1)CCCN3CCC2 | > 10 µM | > 10 µM | > 10 µM | 
CC1=NN(c2nc(N)nc(CSCc3nc(N)nc(N(C)C)n3)n2)C(C)(C)C1 | > 100 µM | > 100 µM | > 100 µM | 
CCOC(=O)c1c(-c2ccc(O)c(OC)c2)c(C#N)c(=S)n(C2OC(COC(C)=O)C(OC(C)=O)C(OC(C)=O)C2OC(C)=O)c1-c1ccccc1 (stereo unspecified) | > 100 µM | > 100 µM |  | 
O=C(O)c1ccc2c(c1)CC1(C2)Cc2ccccc2C1=O (stereo unspecified) | > 100 µM | > 100 µM | > 100 µM | 
C#C[C@]1(O)CCC2C3CCc4cc(Oc5nc(F)nc(-c6c7cc8ccccc8cc7c7n6CCS7)n5)ccc4C3CCC21C (stereo partly specified) | > 100 µM | > 100 µM | > 100 µM | TGI [4]: > 100 µM; TGI [5]: 50.8 µM; TGI [6]: > 100 µM; TGI [7]: > 100 µM; TGI [8]: 99.6 µM; TGI [9]: > 100 µM; TGI [10]: > 100 µM; TGI [11]: > 100 µM; TGI [12]: > 100 µM
CCN(CC)C(=S)SNCc1ccc(S(N)(=O)=O)cc1 |  | 22.8 µM | 39.5 µM | 
CC(=O)NC1C(O)C(O)C(CO)OC1n1ncc(=O)[nH]c1=O (stereo unspecified) | > 100 µM | > 100 µM | > 100 µM | 
COc1ccc(NC(C)=O)cc1C1CCC(=O)N1 (stereo unspecified) | > 100 µM | > 100 µM | > 100 µM | 
CN(C)CCCCN1c2ccccc2Sc2cc(N=[N+]=[N-])ccc21 | 4.11 µM | 3.94 µM | 4.8 µM | 
COc1c2ccccc2c(OC)c2nc(C)ccc12 | 71.6 µM | 61.8 µM | > 100 µM | 
O=[N+]([O-])c1ccc2[nH]ncc2c1Cl | > 100 µM | > 100 µM | > 100 µM | 
O=c1c2cccnc2cc(-c2ccccc2)n1CCO | > 100 µM | > 100 µM | > 100 µM | 
CCCCCC(CO)C(O)(C(F)(F)F)C(F)(F)F (stereo unspecified) |  | > 10 µM | > 10 µM | 
CC/C=C/C(=O)CC(O)(C(F)(F)F)C(F)(F)F | > 100 µM | > 100 µM | > 100 µM | 
CC(=O)OC1COC(n2c(-c3ccc(Cl)cc3)cc(-c3ccccc3)c(C#N)c2=S)C(OC(C)=O)C1OC(C)=O (stereo unspecified) | > 86.1 µM | > 89.9 µM | > 100 µM | 
COC(=O)C1=Cc2cc(OC)c(O)cc2[C@@H](c2ccc(O)c(OC)c2)[C@@H]1C(=O)OC | > 100 µM | > 100 µM | > 100 µM | 
CCOC(=O)[C@@H]1ON2O[C@H](OC3CCCC3(c3ccccc3)c3ccccc3)C[C@H]3OC(=O)[C@@H]1C32 (stereo partly specified) | 78.3 µM | 59.1 µM | > 100 µM | 
COc1cc(NP(=O)(Oc2ccccc2)Oc2ccccc2)ccc1Nc1c2ccccc2nc2c1[nH]c1ccccc12 |  |  | 5.7 µM | 
CN(C(=O)Cc1ccc(Cl)c(Cl)c1)[C@@H]1CCCC[C@H]1[N+]1(C)CC=CC1 |  | > 100 µM |  | 
COc1ccc(/C=C2\CCCCCC2=O)cc1 | > 100 µM |  |  | 
